According to patent publication US20250304593A1 (Skyhawk Therapeutics, Inc., priority 2022, published 2025):
pEC50, pIC50: −log10 of the molar value.

Experiments:
[1] = system: ATXN3 transcripts containing exon 4 (E4E5); assay: ATXN3 quantitative splicing assay (qPCR, E4E5 primers/probe detecting transcripts containing exon 4); type: cell-based; details: Homo sapiens, SK-N-MC cells, 24 h treatment
Procedure: Human neuroblastoma SK-N-MC cells were plated in 384-well plates at 20,000 cells/well. Twenty-four hours after plating, cells were treated with compounds for 24 h at appropriate concentrations ranging from 30.M to 0.6 nM (0.300 DMS0). Treated cells were lysed in 15.L of lysis buffer, and cDNA was synthesized using the Fast Advanced Cells-to-Ct kit. Two L of each cDNA was used in qPCR reactions to confirm the exon 4 skipped transcripts of ATXN3. A second set of primers/probe E4E5 was used to detect the transcripts containing exon 4. The third set of primers/probe E8E9 was used to detect total gene level of ATXN3. The qPCR reactions were prepared in 384-well plates in 10 L volume, using TaqMan™ Fast Advanced Master Mix with primers and probes shown in the table below. Reactions were run in a Quant Studio 6 qPCR instrument with default settings.
The primers and probes are listed below in Table 4.

total ATXN3 protein = assay: ATXN3 total protein assay (Mesoscale Discovery); type: cell-based, Human; details: SK-N-MC cells, 48 hours incubation, MSD assay; read-out: ATXN3 Potency - Protein IC50
Procedure: Human neuroblastoma SK-N-MC cells were seeded at 10,000 cells/well in 384 well plates one day prior to compound treatment. The concentrations of compounds were tested at appropriate doses ranging from 30 µM to 0.6 nM. After incubation for 48 hours, the cells were lysed with 25.L of lysis buffer containing protease inhibitors, and total ATXN3 protein levels were assessed by Mesoscale Discovery (MSD) assay developed with one pair of anti-ATXN3 antibodies. The capture and detect antibodies were raised in mouse and rabbit respectively. Anti-rabbit MSD-ST antibody was used for secondary antibody.
ATXN3 recombinant protein was used for standards. The readouts were captured with 35 μL of MSD read buffer and multi-array 384-well high binding plates.

ATXN3-HiBiT protein = assay: ATXN3 HiBiT assay (luminescence, Kelly-ATXN3-HiBiT cell line); type: cell-based; details: Kelly-ATXN3-HiBiT cells, read out 48 h after addition of compound
Description: To monitor ATXN3 protein levels by luminescence, a Kelly-ATXN3-HiBiT cell line with homozygous knock-in of HiBiT at the C-terminus of the endogenous ATXN3 gene was used (knock-in of the HiBiT-tag coding sequence SEQ ID NO. 14: 5′[…]3′ into exon 11 of ATXN3 -position 1114 of ATXN3 RefSeq NM_004993.6). Manipulations of the Kelly-ATXN3-HiBiT cell line that result in downregulation of the ATXN3-HiBiT protein (through modulation of ATXN3-HiBiT pre-mRNA splicing) can be followed by monitoring the luminescence signal of the HiBiT tag using the Nano Glo HiBiT Lytic Detection System (Promega, #N3050). Kelly-ATXN3-HiBiT cells were maintained in RPMI 1640 w/Glutamax (Gibco, #61870010), 10% FBS (Sigma Aldrich, #F8687), 1% Penicillin/Streptomycin (Gibco, #15140-122) at 37° C., 5% CO2. To assess HiBiT-luminescence signal upon compound treatment, 2000 Kelly-ATXN3-HiBiT cells were seeded per well in 384 plate format. Compounds were added 24 h after seeding. ATXN3-HiBiT-luminescence signal was read out 48 h after addition of the compound using the Nano Glo HiBiT Lytic Detection System (Promega, #N3050) according to the manufacturer's instructions. To control for cell viability, an identically prepared sister plate was read out with the CellTiter-Glo® 2.0 Assay (Promega, #G9243) according to the manufacturer's instructions. Fold changes of ATXN3-HiBiT-luminescence and of CellTiter-Glo viability signals were calculated relative to a DMSO control condition.

| pIC50 [1] | pIC50 (total ATXN3 protein) | pEC50 (ATXN3-HiBiT protein) | Structure (SMILES) |
| --- | --- | --- | --- |
| 4.40 to 5.00 | 4.40 to 5.00 |  | Clc1nc(NCc2ccncc2)c2occc2n1 [Compound 3, [(4-pyridyl)methyl](5-chloro-1-oxa-4,6-diaza-7-indenyl)-amine] |
| 4.40 to 5.00 | 4.40 to 5.00 |  | Clc1nc(NCc2ccccc2)c2occc2n1 [Compound 4, N-benzyl-2-chlorofuro[3,2-d]pyrimidin-4-amine] |
| 4.40 to 5.00 | 4.40 to 5.00 |  | C/C=C/c1cc2nc(Cl)nc(NCc3ccccc3)c2o1 [Compound 5, N-benzyl-2-chloro-6-(prop-1-en-1-yl)furo[3,2-d]pyrimidin-4-amine] |
| 4.40 to 5.00 | 4.40 to 5.00 |  | C/C=C/c1cc2nc(Cl)nc(NCc3ccncc3)c2o1 [Compound 6] |
| 4.40 to 5.00 | 4.40 to 5.00 |  | Cc1coc2c(NCc3nccs3)nc(Cl)nc12 [Compound 9, [(1,3-thiazol-2-yl)methyl](5-chloro-3-methyl-1-oxa-4,6-diaza-7-indenyl)amine] |
| 5.30 to 6.30 | 5.30 to 6.30 |  | Cc1coc2c(NCc3ccco3)nc(Cl)nc12 [Compound 10, (furfuryl)(5-chloro-3-methyl-1-oxa-4,6-diaza-7-indenyl)-amine] |
| 7.00 to 11.00 | 7.00 to 11.00 | 7.00 to 11.00 | C#Cc1c(C[C@@H](N)[C@H](C)F)oc2c(NCc3ccco3)nc(Cl)nc12 [Compound 12, 2-[(2R,3S)-2-amino-3-fluoro-butyl]-5-chloro-3-ethynyl-7-(furfurylamino)-1-oxa-4,6-diazaindene] |
| 7.00 to 11.00 | 7.00 to 11.00 | 7.00 to 11.00 | C#Cc1c(C[C@@H](N)[C@H](C)F)oc2c(NCc3cccs3)nc(Cl)nc12 [Compound 13, 6-[(2R,3S)-2-amino-3-fluorobutyl]-2-chloro-7-ethynyl-N-(thiophen-2-ylmethyl)furo[3,2-d]pyrimidin-4-amine] |
| 7.00 to 11.00 | 7.00 to 11.00 | 7.00 to 11.00 | C[C@H](F)[C@H](N)Cc1oc2c(NCc3ccco3)nc(Cl)nc2c1Br [Compound 14, 2-[(2R,3S)-2-amino-3-fluoro-butyl]-3-bromo-5-chloro-7-(furfurylamino)-1-oxa-4,6-diazaindene] |
| 7.00 to 11.00 | 6.30 to 7.00 | 6.30 to 7.00 | C[C@H](F)[C@H](N)Cc1oc2c(NCc3cccs3)nc(Cl)nc2c1Br [Compound 15, 2-[(2R,3S)-2-amino-3-fluoro-butyl]-3-bromo-5-chloro-7-thenylamino-1-oxa-4,6-diazaindene] |
| 7.00 to 11.00 | 6.30 to 7.00 | 7.00 to 11.00 | C[C@H](F)[C@H](N)Cc1oc2c(NCc3ccco3)nc(Cl)nc2c1Cl [Compound 16, 2-[(2R,3S)-2-amino-3-fluoro-butyl]-3,5-dichloro-7-(furfur-ylamino)-1-oxa-4,6-diaza-indene] |
| 6.30 to 7.00 | 6.30 to 7.00 | 6.30 to 7.00 | C[C@H](F)[C@H](N)Cc1oc2c(NCc3cccs3)nc(Cl)nc2c1Cl [Compound 17, 2-[(2R,3S)-2-amino-3-fluoro-butyl]-3,5-dichloro-7-thenyl-amino-1-oxa-4,6-diazaindene] |
| 6.30 to 7.00 | 6.30 to 7.00 | 6.30 to 7.00 | C[C@H](F)[C@H](N)Cc1oc2c(NCc3nccs3)nc(Cl)nc2c1Br [Compound 18, 2-[(2R,3S)-2-amino-3-fluoro-butyl]-3-bromo-5-chloro-7-{[(1,3-thiazol-2-yl)methyl]-amino}-1-oxa-4,6-diaza-indene] |
| 6.30 to 7.00 | 6.30 to 7.00 | 5.30 to 6.30 | C[C@H](F)[C@H](N)Cc1oc2c(NCc3ccccc3)nc(Cl)nc2c1Br [Compound 19, 2-[(2R,3S)-2-amino-3-fluoro-butyl]-7-benzylamino-3-bromo-5-chloro-1-oxa-4,6-diazaindene] |
| 7.00 to 11.00 | 6.30 to 7.00 | 7.00 to 11.00 | C[C@H](F)[C@H](N)Cc1oc2c(NCc3ccncc3)nc(Cl)nc2c1Br [Compound 20, 2-[(2R,3S)-2-amino-3-fluoro-butyl]-3-bromo-5-chloro-7-{[(4-pyridyl)methyl]amino}-1-oxa-4,6-diazaindene] |
| 6.30 to 7.00 | 6.30 to 7.00 | 6.30 to 7.00 | C#Cc1nc(NCc2cccs2)c2oc(C[C@@H](N)[C@H](C)F)c(C#C)c2n1 [Compound 26] |
| 6.30 to 7.00 | 6.30 to 7.00 | 6.30 to 7.00 | C#Cc1nc(NCc2cccs2)c2oc(C[C@@H](N)[C@H](C)F)c(Br)c2n1 [Compound 27, 6-[(2R,3S)-2-amino-3-fluorobutyl]-7-bromo-2-ethynyl-N-(thiophen-2-ylmethyl)furo[3,2-d]pyrimidin-4-amine] |
| 6.30 to 7.00 | 6.30 to 7.00 | 6.30 to 7.00 | C#Cc1nc(NCc2ccco2)c2oc(C[C@@H](N)[C@H](C)F)c(Br)c2n1 [Compound 28, 2-[(2R,3S)-2-amino-3-fluoro-butyl]-3-bromo-5-ethynyl-7-(furfurylamino)-1-oxa-4,6-diazaindene] |
| 5.30 to 6.30 |  |  | C[C@H](F)[C@H](N)Cc1oc2c(NCc3cccs3)nc(Cl)nc2c1-c1ncco1 [Compound 34, 6-[(2R,3S)-2-amino-3-fluorobutyl]-2-chloro-7-(1,3-oxazol-2-yl)-N-(thiophen-2-ylmethyl)furo[3,2-d]pyrimidin-4-amine] |

| Structure (SMILES) | pIC50 [1] | pIC50 (total ATXN3 protein) | pEC50 (ATXN3-HiBiT protein) |
| --- | --- | --- | --- |
| CC(N)Cc1cc2nc(Cl)nc(NCc3ccncc3)c2o1 (centres unmarked) [Compound 1, 6-(2-aminopropyl)-2-chloro-N-(pyridin-4-ylmethyl)furo [3,2-d]pyrimidin-4-amine] | 4.40 to 5.00 | 4.40 to 5.00 |  |
| CC(N)Cc1cc2nc(Cl)nc(NCc3ccccc3)c2o1 (centres unmarked) [Compound 2, 2-(2-aminopropyl)-7-benzyl-amino-5-chloro-1-oxa-4,6-diazaindene] | 4.40 to 5.00 | 4.40 to 5.00 |  |
| Cc1c(C[C@H](C)N)oc2c(NCc3nccs3)nc(Cl)nc12 [Compound 7] | 4.40 to 5.00 | 4.40 to 5.00 |  |
| Cc1c(C[C@H](C)N)oc2c(NCc3ccco3)nc(Cl)nc12 [Compound 8, 2-[(S)-2-aminopropyl]-5-chloro-7-(furfurylamino)-3-methyl-1-oxa-4,6-diaza-indene] | 5.30 to 6.30 | 5.30 to 6.30 |  |
| Cc1c(C[C@H](C)N)oc2c(NCc3cccs3)nc(Cl)nc12 [Compound 11, 2-[(S)-2-aminopropyl]-5-chloro-3-methyl-7-thenyl-amino-1-oxa-4,6-diaza-indene] | 5.30 to 6.30 | 5.30 to 6.30 |  |
| C[C@H](N)Cc1oc2c(NCc3cccs3)nc(Cl)nc2c1Br [Compound 32, 6-[(2S)-2-aminopropyl]-7-bromo-2-chloro-N-(thiophen-2-ylmethyl)furo[3,2-d]pyrimidin-4-amine] | 6.30 to 7.00 | 6.30 to 7.00 | 6.30 to 7.00 |
| C[C@H](N)Cc1oc2c(NCc3ccco3)nc(Cl)nc2c1Br [Compound 33, 2-[(S)-2-aminopropyl]-3-bromo-5-chloro-7-(furfur-ylamino)-1-oxa-4,6-diaza-indene] | 6.30 to 7.00 | 7.00 to 11.00 | 7.00 to 11.00 |
